According to patent US12036292B2, “Heterobiaryl compounds and imaging agents for imaging huntingtin protein” (CHDI Foundation, Inc., priority 2020, dated 2024):

What follows are compounds tested against T1, MBP-HTT(1-89)Q46-His(6×) (“Exon1-Q46”) protein aggregates (Homo sapiens, UniProt P42858, INS38QQQQQQQQQQQQQQQQQQQQQQQQQ) (assay: Exon1-Q46 Radioligand Binding Assay). Details: displacement of 0.3 nM ligand [3H3-methyl]-5-((5-methoxypyridin-2-yl)methoxy)-2-(pyrazin-2-yl)benzo[d]oxazole from 1 μM aggregated Exon1-Q46 protein; 60 minutes at 37° C.; read-out: Classified Potency.
T1 construct: MBP-HTT(1-89)Q46-His(6×); His(6×) (C); made in house
T1 sequence (P42858 with tags, fused parts or gaps with the stated changes limits assumed): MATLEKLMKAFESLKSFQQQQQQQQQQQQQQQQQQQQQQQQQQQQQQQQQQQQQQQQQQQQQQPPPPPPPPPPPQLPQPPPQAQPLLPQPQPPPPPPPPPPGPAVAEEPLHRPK
Method: Exon1-Q46 Radioligand Binding Assay
For radioligand binding assays (RBA) MBP-HTT(1-89)Q46-His(6×) (“Exon1-Q46”) protein was generated based on a previous publication (Scherzinger et al. Cell, Vol. 90, 549-558, Aug. 8, 1997). For experiments, 30 pM MBP-Exon1-Q46 was incubated with 150 μg/mL thrombin in assay buffer (150 mM NaCl, 50 mM Tris pH 8.0) and 2 mM CaCl2 for 16 hours at 37° C. Aggregated Exon1-Q46 was pelleted by centrifugation for 5 minutes at 13,000 rpm in a bench top centrifuge and re-dissolved in the same volume of assay buffer. Test compounds were prepared by titration in DMSO at 11 concentrations from 63 μM to 2 nM. For the RBA, Q46 protein aggregates and test compounds were pre-incubated in assay buffer for 20 minutes at room temperature, in 100 μL/well in a 96-well plate (pp, round bottom). Then, ligand was added in 50 μL/well and incubated for 60 minutes at 37° C. Final assay concentrations were 1 μM to 30 pM test compound, 1 μM Exon1-Q46 protein (equivalent monomer concentration) and 0.3 nM ligand [^3H3-methyl]-5-((5-methoxypyridin-2-yl)methoxy)-2-(pyrazin-2-yl)benzo[d]oxazole. Samples were transferred onto GF/B filter plates and washed 2× with 200 μL PBS using a Filtermate Harvester. After drying filter plates for 1 hour at 55° C., the back of the plates were sealed with foil and 30 μL/well scintillation fluid (Packard MicroScint 40) added, incubated for 15 minutes in the dark and counted in a MicroBeta reader. For analysis, replicate data from independent assay plates were normalized towards 0% and 100% inhibition using control wells of vehicle (0% inhibition) and 1 μM unlabeled [^3H3-methyl]-5-((5-methoxypyridin-2-yl)methoxy)-2-(pyrazin-2-yl)benzo[d]oxazole (100% inhibition). IC50 values were determined with a sigmoidal inhibition model with four variables (top, bottom, slope, IC50) in a global fit using the normalized replicate data.
The results for various example compounds were as provided in the table below (+++<100 nM; ++100-500; +500-10000; ND: not determined): […]

Compound	IC50 [nM]
COc1cc(-c2cc(C(=O)Nc3ccc(=O)n(C)n3)nc(-c3ccccc3)n2)ccn1 [Example 40, 6-(2-Methoxypyridin-4-yl)-N-(1-methyl-6-oxo-1,6-dihydropyridazin-3-yl)-2-phenylpyrimidine-4-carboxamide]	< 100
COc1ncc(-c2cc(C(=O)NCc3nccc(=O)n3C)ncn2)cc1Cl [Example 33, 6-(5-Chloro-6-methoxypyridin-3-yl)-N-((1-methyl-6-oxo-1,6-dihydropyrimidin-2-yl)methyl)pyrimidine-4-carboxamide]	< 100
Cn1cnc(NC(=O)c2cc(-c3cc(F)cc(Cl)c3)ncn2)cc1=O [Example 38]	< 100
COc1cc(-c2cc(C(=O)N3Cc4cccnc4C3)ncn2)ccn1 [Example 14]	< 100
COc1cncc(NC(=O)c2cc(-c3cccc(Cl)c3)ncn2)c1 [Example 3]	< 100
COc1ccc(-c2cc(C(=O)NCc3nccc(=O)n3C)ncn2)cc1Cl [Example 30]	< 100
COc1ncc(NC(=O)c2cc(-c3cc(F)cc(Cl)c3)ncn2)cn1 [Example 28]	< 100
COc1cc(-c2cc(C(=O)Nc3ccc(=O)n(C)n3)ncn2)ccc1F [Example 10]	< 100
COc1ccc(CNC(=O)c2cc(-c3ccc(F)c(OC)c3)ncn2)nc1 [Example 13]	< 100
O=C(c1cc(-c2cccc(Cl)c2)ncn1)N1CCc2ccccc21 [Example 2]	< 100
Cn1cc(NC(=O)c2cc(-c3cc(F)cc(Cl)c3)ncn2)cnc1=O [Example 35, 6-(3-Chloro-5-fluorophenyl)-N-(1-methyl-2-oxo-1,2-dihydropyrimidin-5-yl)pyrimidine-4-carboxamide]	< 100
COc1cnc(NC(=O)c2cc(-c3cc(F)cc(Cl)c3)ncn2)cn1 [Example 25]	< 100
COc1cccc(-c2cc(C(=O)Nc3ccc(=O)n(C)n3)ncn2)c1 [Example 4, 6-(3-Methoxyphenyl)-N-(1-methyl-6-oxo-1,6-dihydropyridazin-3-yl)pyrimidine-4-carboxamide]	< 100
N#Cc1cc(F)cc(-c2cc(C(=O)Nc3ccc(=O)[nH]n3)ncn2)c1 [Example 27]	< 100
Cn1ncc(NC(=O)c2cc(-c3cc(F)cc(Cl)c3)ncn2)cc1=O [Example 39]	< 100
COc1cc(C#N)cc(-c2cc(C(=O)Nc3ccc(=O)[nH]n3)ncn2)c1 [Example 26]	< 100
Cn1c(CNC(=O)c2cc(-c3cc(F)cc(C#N)c3)ncn2)nccc1=O [Example 32]	< 100
Cn1nc(NC(=O)c2cc(-c3cc(F)cc(C#N)c3)ncn2)ccc1=O [Example 20]	< 100
COc1cc(-c2cc(C(=O)Nc3ccc(=O)n(C)n3)ncn2)ccc1Cl [Example 9]	< 100
COc1cc(-c2cc(C(=O)NCc3ncccc3OC)ncn2)ccc1F [Example 15]	< 100

Compound	IC50 [nM]
COc1ncc(-c2cc(C(=O)Nc3ccc(=O)n(C)n3)ncn2)cc1Cl [Example 17]	< 100
COc1ccc(-c2cc(C(=O)Nc3ccc(=O)n(C)n3)ncn2)cc1Cl [Example 8, 6-(3-Chloro-4-methoxyphenyl)-N-(1-methyl-6-oxo-1,6-dihydropyridazin-3-yl)pyrimidine-4-carboxamide]	< 100
COc1cc(F)cc(-c2cc(C(=O)Nc3ccc(=O)n(C)n3)ncn2)c1 [Example 21]	< 100
COc1cc(C#N)cc(-c2cc(C(=O)Nc3ccc(=O)n(C)n3)ncn2)c1 [Example 19]	< 100
COc1cncc(NC(=O)c2cc(-c3ccnc(OC)c3)ncn2)c1 [Example 7]	< 100
COc1ccc(-c2cc(C(=O)Nc3cc(=O)n(C)cn3)ncn2)cc1Cl [Example 37]	< 100
COc1ccnc(CNC(=O)c2cc(-c3ccc(F)c(OC)c3)ncn2)n1 [Example 16]	< 100
Cn1nc(NC(=O)c2cc(-c3cc(F)nc(Cl)c3)ncn2)ccc1=O [Example 23]	< 100
COc1ccc(-c2cc(C(=O)Nc3cnn(C)c(=O)c3)ncn2)cc1Cl [Example 36, 6-(3-Chloro-4-methoxyphenyl)-N-(1-methyl-6-oxo-1,6-dihydropyridazin-4-yl)pyrimidine-4-carboxamide]	< 100
COc1ccc(-c2cc(C(=O)Nc3nccn(C)c3=O)ncn2)cc1Cl [Example 18]	< 100
COc1cc(-c2cc(C(=O)Nc3cncc(OC)c3C)ncn2)ccn1 [Example 5]	< 100
Cn1nc(NC(=O)c2cc(-c3ccc(F)c(Cl)c3)ncn2)ccc1=O [Example 12]	< 100
COc1cc(-c2cc(C(=O)NCc3nccc(=O)n3C)ncn2)ccc1F [Example 29, 6-(4-Fluoro-3-methoxyphenyl)-N-((1-methyl-6-oxo-1,6-dihydropyrimidin-2-yl)methyl)pyrimidine-4-carboxamide]	< 100
Cn1nc(NC(=O)c2cc(-c3cc(F)cc(Cl)c3)ncn2)ccc1=O [Example 11]	< 100
Cn1c(CNC(=O)c2cc(-c3cc(F)cc(Cl)c3)ncn2)nccc1=O [Example 31]	< 100
Cn1ccnc(NC(=O)c2cc(-c3cc(F)cc(Cl)c3)ncn2)c1=O [Example 24]	< 100
Cc1cc(Cl)cc(-c2cc(C(=O)Nc3ccc(=O)n(C)n3)ncn2)c1 [Example 22]	< 100
O=C(Nc1ccccc1)c1cc(-c2cccc(Cl)c2)ncn1 [Example 1, 6-(3-Chlorophenyl)-N-phenylpyrimidine-4-carboxamide]	< 100
COc1ccnc(CNC(=O)c2cc(-c3cnc(OC)c(Cl)c3)ncn2)n1 [Example 34, 6-(5-chloro-6-methoxypyridin-3-yl)-N-((4-methoxypyrimidin-2-yl)methyl)pyrimidine-4-carboxamide]	< 100
COc1cc(-c2cc(C(=O)Nc3cncc(Cl)c3OC)ncn2)ccn1 [Example 6]	< 100
